{"source": "patent US10081632B2", "about": "“Substituted tetrahydropyrido[3′,2′:4,5]pyrrolo[1,2-α]pyrazine-2-carboxamides as RSK inhibitors” (Phoenix Molecular Designs, priority 2016, dated 2018)", "key": {"4T1 cells": {"tested_on": "4T1 cells", "assay": "Monolayer growth inhibition, crystal violet assay", "format": "cell-based", "conditions": "Mus musculus, 4T1, 4T1 (TNBC), 5 days, single dose on day 1", "text": "(§1) In all instances a single dose was given on day 1 of the experiment."}, "SUM149 cells": {"tested_on": "SUM149 cells", "assay": "Monolayer growth inhibition, crystal violet assay", "format": "cell-based", "conditions": "Homo sapiens, SUM149, SUM149 (TNBC, BRCA Mutant), 5 days, single dose on day 1", "text": "as §1"}, "HCC1143 cells": {"tested_on": "HCC1143 cells", "assay": "Monolayer growth inhibition, crystal violet assay", "format": "cell-based", "conditions": "Homo sapiens, HCC1143, HCC1143 (TNBC), 5 days, single dose on day 1", "text": "as §1"}, "[1]": {"tested_on": "phosphorylated Y-box binding protein-1 (YB-1) at serine 102 (P-YB-1S102)", "assay": "Immunoblotting of cell signalling, loss of P-YB-1 in MDA-MB-231 cells"}, "MDA-MB-468 cells": {"tested_on": "MDA-MB-468 cells", "assay": "Monolayer growth inhibition, crystal violet assay", "format": "cell-based", "conditions": "Homo sapiens, MDA-MB-468, MDA-MB-468 (TNBC), 5 days, single dose on day 1", "text": "(§2) In all instances a single dose was given on day 1 of the experiment. […] Complete (100%) growth suppression was achievable with several of the compounds in multiple different cell lines."}, "T47D cells": {"tested_on": "T47D cells", "assay": "Monolayer growth inhibition, crystal violet assay", "format": "cell-based", "conditions": "Homo sapiens, T47D, T47D (ER/PR), 5 days, single dose on day 1", "text": "as §2"}, "HCC1937 cells": {"tested_on": "HCC1937 cells", "assay": "Monolayer growth inhibition, crystal violet assay", "format": "cell-based", "conditions": "Homo sapiens, HCC1937, HCC1937 (TNBC, BRCA Mutant), 5 days, single dose on day 1", "text": "as §2"}, "JIMT-1 cells": {"tested_on": "JIMT-1 cells", "assay": "Monolayer growth inhibition, crystal violet assay", "format": "cell-based", "conditions": "Homo sapiens, JIMT-1, JIMT-1 (HER2), 5 days, single dose on day 1", "text": "as §2"}}}
{"smiles": "C[C@@H]1CNC(=O)c2cc3ccc(C(=O)Nc4cnn(Cc5ccc(N)cc5)c4)nc3n21", "note": "[Compound 18, (R)—N-(1-(4-aminobenzyl)-1H-pyrazol-4-yl)-9-methyl-6-oxo-6,7,8,9-tetrahydropyrido[3′,2′:4,5]pyrrolo[1,2-a]pyrazine-2-carboxamide]", "values": [{"measurement": "IC50", "setting": "4T1 cells", "value": "5.3 ± 1.1", "unit": "µM"}, {"measurement": "IC50", "setting": "SUM149 cells", "value": "2400 ± 700", "unit": "nM"}, {"measurement": "IC50", "setting": "HCC1143 cells", "value": "2400 ± 800", "unit": "nM"}, {"measurement": "Loss of P-YB-1", "setting": "[1]; MDA-MB-231 cells, 0.01, 0.1, 1, or 10 uM, 24 hrs", "value": "dose dependent loss of P-YB-1"}, {"measurement": "Loss of P-YB-1", "setting": "[1]; MDA-MB-231 cells, 0.01-1 uM, 96 hrs", "value": "dose dependent loss of P-YB-1"}, {"measurement": "IC50", "setting": "MDA-MB-468 cells", "value": "2300 ± 900", "unit": "nM"}, {"measurement": "IC50", "setting": "T47D cells", "value": "2200 ± 800", "unit": "nM"}, {"measurement": "IC50", "setting": "HCC1937 cells", "value": "7.7 ± 3.5", "unit": "µM"}, {"measurement": "IC50", "setting": "JIMT-1 cells", "value": "11.1 ± 0.5", "unit": "µM"}]}
